In patent US20090041687A1 (priority 2005, published 2009):
Counter-ions that a name gives are not always drawn.

These molecules were tested against T1, μ-opioid receptor (Homo sapiens, UniProt P35372) (assay: μ-opioid receptor binding assay and GTP-recruitment assay (screening for antagonists)). Details: [3H] DAMGO binding and DAMGO/GTP-Eu recruitment, membranes from CHO cells overexpressing the receptor; result in words.
T1 construct: purchased Perkin Elmer; host or cells: CHO cells (recombinant overexpression; membrane preparation)
T1 sequence (P35372 whole entry): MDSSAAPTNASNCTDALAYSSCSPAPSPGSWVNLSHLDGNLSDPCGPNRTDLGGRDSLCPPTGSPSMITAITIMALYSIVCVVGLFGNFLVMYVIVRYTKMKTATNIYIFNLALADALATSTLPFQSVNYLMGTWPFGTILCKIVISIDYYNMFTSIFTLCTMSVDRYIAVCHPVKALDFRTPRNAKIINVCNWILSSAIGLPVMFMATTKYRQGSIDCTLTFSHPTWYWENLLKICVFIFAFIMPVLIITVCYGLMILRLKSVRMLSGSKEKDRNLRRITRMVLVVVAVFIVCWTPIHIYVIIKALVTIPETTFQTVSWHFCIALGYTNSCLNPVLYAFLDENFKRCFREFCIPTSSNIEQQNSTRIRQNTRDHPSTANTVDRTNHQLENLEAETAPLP
Assay type: biochemical
Description: […] DAMGO (Amersham) in 50 mM Tris HCl pH 7.4 (Sigma), 10 mM MgCl2 (Sigma) and 0.2% BSA (Sigma) in the presence of the negative control DMSO (Fluka) or the test compounds. The incubation mixture was transferred to filter plates (Perkin Elmer), the liquid aspirated through the application of a vacuum from the bottom and the plate washed twice with PBS (Invitrogen). The plate was allowed to dry, 35 μl of scintillation cocktail (Ultima Gold, Perkin Elmer) added, sealed and placed on a TopCount (Packard) for scintillation counting.
[…] The incubation mixture was transferred to filter plates (Perkin Elmer), the liquid aspirated through the application of a vacuum from the bottom and the plate washed twice with PBS (Invitrogen) and allowed to dry. Plates were read in an Analyst reader (LJL Biosystems).
For `COC1=C(OC)C(=O)C=CC1=O` [2,3-Dimethoxy-1,4-benzoquinone], the “identified as opioid receptor antagonist in the screening” value (from here on “identified”) was “opioid receptor antagonists”. For `COC1=C(OC)C(=O)C(C)=CC1=O` [2,3-Dimethoxy-5-methyl-1,4-benzoquinone], the “identified” value was “opioid receptor antagonists”. In the case of `COc1c(O)cc(C)c(O)c1OC` [2,3-Dimethoxy-5-methylhydroquinone], the “identified” value is reported as “opioid receptor antagonists”. With `COc1c(O)ccc(O)c1OC` [2,3-Dimethoxyhydroquinone] the “identified” value was “opioid receptor antagonists”. In the case of `O=C(/C=C/c1ccc(O)c(O)c1)c1ccc(O)c(O)c1O` [2′,3′,4′,3,4-Pentahydroxychalcone], the “identified” value is reported as “opioid receptor antagonists”. `O=C1/C(=C/c2ccc(O)c(O)c2)Oc2cc(O)cc(O)c21` [Aureusidin] was tested, and the “identified” value was “opioid receptor antagonists”. In the case of `Oc1cc(O)c2cc(O)c(-c3cc(O)c(O)c(O)c3)[o+]c2c1` [Delphinidin chloride], the “identified” value is reported as “opioid receptor antagonists”. `O=C(Oc1cc(O)cc2c1C[C@@H](OC(=O)c1cc(O)c(O)c(O)c1)[C@@H](c1cc(O)c(O)c(O)c1)O2)c1cc(O)c(O)c(O)c1` [Epigallocatechin 3,5-Digallate] was tested, and the “identified” value was “opioid receptor antagonists”. In the case of `CC(=O)Oc1cc(-c2coc3cc(OC(C)=O)c(OC(C)=O)c(OC(C)=O)c3c2=O)cc(OC(C)=O)c1OC(C)=O` [Irigenol Hexaacetate], the “identified” value is reported as “opioid receptor antagonists”. With `O=c1c(-c2cc(O)c(O)c(O)c2)coc2cc(O)c(O)c(O)c12` [Irigenol ex Iris spp] the “identified” value was “opioid receptor antagonists”. For `C/C1=C\CCC(C)(O)/C=C/C(C(C)C)CC/C(C)=C/CC1` (stereo not shown) [Isocembrol], the “identified” value was “opioid receptor antagonists”. With `O=c1c(O)c(-c2ccc(O)c(O)c2)oc2cc(O)c(O)c(O)c12` [Quercetagetin] the “identified” value was “opioid receptor antagonists”. In the case of `O=c1c(O)c(-c2cc(O)c(O)c(O)c2)oc2cc(O)ccc12` [Robinetin], the “identified” value is reported as “opioid receptor antagonists”. With `CC(C)=CCC(OC(=O)C=C(C)C)C1=CC(=O)c2c(O)ccc(O)c2C1=O` (stereo not drawn) [beta,beta-Dimethylacryl shikonin] the “identified” value was “opioid receptor antagonists”.

Same assay, conditions: [3H] DAMGO binding and DAMGO/GTP-Eu recruitment, membranes from CHO cells overexpressing the receptor; result in words; Hydrochloride
`COc1cc2c3cc1Oc1c(OC)c(OC)cc4c1[C@@H](Cc1cccc(c1)Oc1ccc(c(O)c1)C[C@@H]3N(C)CC2)N(C)CC4` [Berbamine Hydrochloride] was tested, and the “identified” value was “opioid receptor antagonists”.

These molecules were tested on human primary melanocytes from skin type IV (assay: total intracellular melanin production in human primary melanocytes (depigmentation)). Details: Naloxone 1 × 10^−4 M, 4 days, absorption of cell lysates at 475 nm, duplicate.
Assay type: cell-based
Description: Normal human melanocytes were cultured from freshly excised foreskin of skin type IV and treated with Dispase (ready-to-use, Roche) overnight at 4° C. Melanocytes dissociated from the epidermis were plated in culture flasks at high density using Melanocyte Growth Medium M2 (Promocell) supplemented with the corresponding growth factors (Promocell). These primary cells were cultivated under 100% humidity and 5% CO2 at 37° C. At the second passage, melanocytes were transferred to 6 well plates and allowed to reach 80% surface confluence.
Medium was renewed on day two of the experiment. Cells were harvested, counted and lysed in 1N NaOH using vigorous vortexing and a 30 minute incubation in an ultrasound bath. Melanin content was determined by measuring the absorption of cell lysates at 475 nm. Values were calibrated against a standard curve based on synthetic melanin (Sigma). The amount of melanin per 1 million cells is reported. Each treatment was run in duplicate.
For `C=CCN1CC[C@]23c4c5ccc(O)c4O[C@H]2C(=O)CC[C@@]3(O)[C@H]1C5` [Naloxone], the “Melanin (μg/10^6 cells)” value was 1.05 μg/10^6 cells.

Same assay, conditions: Naloxone 1 × 10^−4 M, 4 days, versus control
For `C=CCN1CC[C@]23c4c5ccc(O)c4O[C@H]2C(=O)CC[C@@]3(O)[C@H]1C5` [Naloxone], the “Reduction of mean melanin content” value was 86%.

Same assay, conditions: Naloxone 5 × 10^−6 M, 4 days, versus control
With `C=CCN1CC[C@]23c4c5ccc(O)c4O[C@H]2C(=O)CC[C@@]3(O)[C@H]1C5` [Naloxone] the “Reduction of mean melanin content” value was 78%.

Same assay, conditions: result in words
`C=CCN1CC[C@]23c4c5ccc(O)c4O[C@H]2C(=O)CC[C@@]3(O)[C@H]1C5` [Naloxone] was tested, and the “intracellular melanin content compared to the control” value was “dramatically reduces intracellular melanin content”.
